Values of other authors as cited in patent US10611908B2, “Micelles for mucoadhesive drug delivery” (McMaster University, priority 2015, dated 2020).

For C=C(C)C(=O)O [MAA, methacrylic acid], which pKa is on record?
The pKa was roughly 4.6.

For OB(O)c1ccccc1 [PBA, Phenylboronic acid], which pKa is on record?
Its pKa is roughly 8.8.
